Data on 66 compounds can be found in PubChem BioAssay AID977605 (Broad Institute, 2014).

Each structure is given as a SMILES string. The source made the active and inactive calls.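 How the source made its calls: active means fitted curve reaches 40% activation below the top valid tested dose, in every test run; inconclusive means test runs disagree on the call; inactive means the rest, including effects opposite to the expected direction.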

The first experiment in a line: E-selectin inducers in HUVECs, dose response, imaging, HUVEC, cherry-picked samples (AID 977605).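 Further: signal is the share of imaged cells scored positive for E-selectin.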 The following applies: HUVEC E-selectin immunostaining, at 19.5 µM (top of the series).
In the case of `NC(C(=O)O)c1cc(=O)[nH]o1` (stereo unspecified), the activation was 0.044% (inactive).

The same experiment, now with this note: HUVEC E-selectin immunostaining, at 19.5 µM (top of the series), percent of TNF-alpha response over vehicle.
As to `CNC(=O)Oc1ccc2c(c1)[C@]1(C)CCN(C)C1N2C` (stereo partly specified), the activation was -0.106% (inactive).

On to `C[C@@H]1CN([C@H](C)CO)C(=O)c2cc(NC(=O)CCN3CCOCC3)ccc2O[C@@H]1CN(C)Cc1ccc(C(F)(F)F)cc1`, for which the activation was -0.028% (inactive).

For `COc1ccccc1CNC(=O)[C@@H]1CCCN1S(=O)(=O)c1ccc(Cl)cc1`, the activation is -0.15% (inactive).

On to `C[C@H](CO)N1C[C@H](C)[C@@H](CN(C)S(=O)(=O)c2cn(C)cn2)Oc2ccc(NC(=O)Nc3ccc(F)cc3)cc2CC1=O`, for which the activation is 0.1% (inactive).

For `Cc1ccc(S(=O)(=O)Nc2ccc3c(c2)C(=O)N([C@H](C)CO)C[C@@H](C)[C@H](CN(C)Cc2ccc(-c4ccccc4)cc2)O3)cc1`, the activation is -0.157% (inactive).

`COC(=O)c1noc(C)c1-c1ccnn1C(=O)c1ccc(C)cc1`: the activation is 0.122% (inactive).

As to `Cc1noc(C)c1S(=O)(=O)N(C)C[C@H]1Oc2ccc(NC(=O)Nc3ccc(F)cc3)cc2CC(=O)N([C@H](C)CO)C[C@@H]1C`, the activation was -0.001% (inactive).

Regarding `COc1ccc(NC(=O)CCCn2c(=S)[nH]c3ccccc3c2=O)cc1`, the activation was 1.61% (inactive).

As to `CC(C)C[C@@H]1COc2cc(N3CCC[C@H]3CO)ccc2S(=O)(=O)N1`, the activation is -0.153% (inactive).

As to `COc1ccc(NC(=O)N(C)C[C@@H]2Oc3ccc(NC(=O)c4ccncc4)cc3CC(=O)N([C@@H](C)CO)C[C@H]2C)cc1`, the activation is -0.088% (inactive).

Take `C[C@@H]1CN([C@H](C)CO)C(=O)c2cccc(NC(=O)c3ccc(-c4nccs4)cc3)c2O[C@H]1CN(C)Cc1ccc(Oc2ccccc2)cc1`: the activation was 9.5% (inactive).

With `CCCC#Cc1ccc2c(c1)O[C@@H](CN(C)C(=O)c1ccncc1)[C@H](C)CN([C@@H](C)CO)S2(=O)=O`, the activation was -0.24% (inactive).

For the compound `CC1=NC(C)(C)Cc2c(C)cccc21`, the activation was -0.148% (inactive).

In the case of `C[C@@H]1CN([C@H](C)CO)C(=O)c2cccc(NC(=O)Nc3ccc(C(F)(F)F)cc3)c2O[C@@H]1CN(C)S(=O)(=O)c1cccs1`, the activation was -0.223% (inactive).

Regarding `CC(C)NC(=O)Nc1ccc2c(c1)C(=O)N([C@@H](C)CO)C[C@H](C)[C@@H](CN(C)Cc1ccc(C(F)(F)F)cc1)O2`, the activation was -0.03% (inactive).

Take `COc1ncnc(OC)c1S(=O)(=O)NCc1ccccc1`: the activation was -0.033% (inactive).

Turning to `C[C@@H]1CN([C@@H](C)CO)C(=O)c2cccc(NC(=O)C3CCOCC3)c2O[C@@H]1CN(C)Cc1ccncc1`, the activation was 0.913% (inactive).

For `CCCN1[C@H](CO)[C@H](c2ccc(C#Cc3ccccc3)cc2)[C@@H]1CNC1CCCC1`, the activation was 4.52% (inactive).

Consider `Cc1ccc(SCc2cc(=O)n(C)[nH]2)cc1`, for which the activation is 0.221% (inactive).

As for `CN1C(=O)c2cc(NS(C)(=O)=O)ccc2OC[C@@H]2O[C@H](CC(=O)NCc3ccc(-c4ccccc4)cc3)CC[C@@H]21`, the activation is -0.043% (inactive).

As for `C[C@@H]1CN([C@H](C)CO)C(=O)c2cccc(NS(C)(=O)=O)c2O[C@@H]1CN(C)C(=O)Nc1cccc2ccccc12`, the activation was -0.133% (inactive).

Regarding `C[C@H](CO)N1C[C@H](C)[C@@H](CN(C)S(=O)(=O)c2cn(C)cn2)Oc2ccc(N(C)C)cc2C1=O`, the activation is 0.037% (inactive).

As to `O=C(Cc1ccc(-n2c(=O)c3sccc3n(Cc3ccc(F)cc3)c2=O)cc1)NCc1ccco1`, the activation was 0.008% (inactive).

As to `Oc1cccc(Oc2ncc(C(F)(F)F)cc2Cl)c1`, the activation was -0.09% (inactive).

Turning to `CCCC#Cc1ccc2c(c1)O[C@@H](CN(C)C(=O)c1ccccc1)[C@@H](C)CN([C@H](C)CO)S2(=O)=O`, the activation was -0.25% (inactive).

`CC(C)NC(=O)Nc1ccc2c(c1)C(=O)N([C@@H](C)CO)C[C@@H](C)[C@@H](CN(C)Cc1ccc(C(F)(F)F)cc1)O2`: the activation is 0.127% (inactive).

Take `Cc1ccc(NCC(=O)N2CCN(S(=O)(=O)c3ccccc3)CC2)cc1F`: the activation is 0.075% (inactive).

Take `CC(C)NC(=O)Nc1ccc2c(c1)CC(=O)N([C@@H](C)CO)C[C@H](C)[C@@H](CN(C)Cc1ccc(C(=O)O)cc1)O2`: the activation is 0.001% (inactive).

On to `COc1ccc(C(=O)N(CCc2ccccc2)Cc2ccccc2)c(OC)n1`, for which the activation was -0.136% (inactive).

For the compound `COc1ccc(-c2nnc3n2CCCCC3)cc1OC`, the activation was 0.027% (inactive).

Regarding `O=C(Nc1cccc(S(=O)(=O)NCc2ccco2)c1)c1cccc(Cl)c1`, the activation is 0.285% (inactive).

Consider `C[C@@H]1CN([C@H](C)CO)C(=O)c2cccc(NC(=O)Nc3ccc4c(c3)OCO4)c2O[C@@H]1CN(C)C(=O)Nc1ccc(C(F)(F)F)cc1`, for which the activation is 0.256% (inactive).

`Cc1ccccc1CNc1ncnc2cc(Cl)ccc12`: the activation is 0.221% (inactive).

On to `C[C@@H]1CN([C@@H](C)CO)C(=O)Cc2cc(NC(=O)Nc3ccc(F)cc3)ccc2O[C@@H]1CN(C)S(=O)(=O)c1cn(C)cn1`, for which the activation is -0.041% (inactive).

`Cc1noc(C)c1S(=O)(=O)N(C)C[C@@H]1Oc2ccc(NC(=O)Nc3ccc(F)cc3)cc2CC(=O)N([C@H](C)CO)C[C@H]1C`: the activation is -0.155% (inactive).

For the compound `C[C@@H]1CN([C@H](C)CO)C(=O)Cc2cc(NS(C)(=O)=O)ccc2O[C@H]1CN(C)S(=O)(=O)c1cn(C)cn1`, the activation is -0.104% (inactive).

Turning to `CN(C)CCN1CCN(C2CN(Cc3cn(Cc4ccc(C(F)(F)F)cc4)nn3)S(=O)(=O)C2)CC1` (stereo unspecified), the activation was 1.57% (inactive).

For `Cc1cc(C(=O)Nc2ccc(Cl)cc2)n(-c2ccccc2)n1`, the activation is 0.412% (inactive).

With `C[C@@H]1CN([C@@H](C)CO)C(=O)Cc2cc(NC(=O)C3CC3)ccc2O[C@@H]1CN(C)C(=O)Nc1ccccc1`, the activation is 0.276% (inactive).

Consider `Cc1ccc(C(=O)NCC(=O)Nc2ccncc2)cc1C`, for which the activation is -0.08% (inactive).

Consider `CCC(=O)N(C)C[C@H]1Oc2ncc(Br)cc2C(=O)N([C@@H](C)CO)C[C@H]1C`, for which the activation was -0.195% (inactive).

`C[C@@H]1CN([C@@H](C)CO)C(=O)c2cccc(NC(=O)c3ccc(-c4nccs4)cc3)c2O[C@@H]1CN(C)Cc1ccc(Cl)c(Cl)c1`: the activation is 0.039% (inactive).

Turning to `COc1ccc(NC(=O)N(C)C[C@@H]2Oc3c(NS(=O)(=O)c4cn(C)cn4)cccc3C(=O)N([C@@H](C)CO)C[C@H]2C)cc1`, the activation is -0.199% (inactive).

As to `Cc1noc(C)c1S(=O)(=O)Nc1ccc2c(c1)CC(=O)N([C@H](C)CO)C[C@@H](C)[C@H](CN(C)C(=O)Nc1cccc3ccccc13)O2`, the activation was -0.155% (inactive).

`Cc1ccc(S(=O)(=O)N(C)C[C@@H]2Oc3c(NS(=O)(=O)c4ccc(Cl)cc4)cccc3C(=O)N([C@@H](C)CO)C[C@H]2C)cc1`: the activation was -0.172% (inactive).

On to `COc1ccc(OC)c(NC(=O)c2csc(Cl)c2OC)c1`, for which the activation was 2.39% (inactive).

For `CC(C)(C)c1cc(CCC(=O)NCc2ccccn2)cc(C(C)(C)C)c1O`, the activation was -0.086% (inactive).

As for `Cc1cc(C(=O)Nc2cccc3c2O[C@H](CN(C)C(=O)NC2CCCCC2)[C@@H](C)CN([C@@H](C)CO)C3=O)n(C)n1`, the activation was -0.268% (inactive).

Take `C[C@@H]1CN([C@@H](C)CO)S(=O)(=O)c2ccc(C#Cc3ccccc3)cc2O[C@@H]1CN(C)CC1CC1`: the activation is 0.541% (inactive).

For the compound `COc1ccc2[nH]c(=O)c(CN(c3ccccc3)S(=O)(=O)c3ccccc3)cc2c1`, the activation is 3% (inactive).

Take `C[C@H](CO)N1C[C@H](C)[C@H](CN(C)S(=O)(=O)c2ccccc2)Oc2c(NC(=O)Nc3ccccc3)cccc2C1=O`: the activation is -0.014% (inactive).

For the compound `COc1ccc(CN(C)C[C@@H]2Oc3ccc(NC(=O)c4ccncc4)cc3C(=O)N([C@@H](C)CO)C[C@H]2C)cc1`, the activation is 19.2% (inactive).

For `C[C@@H]1CN([C@H](C)CO)C(=O)c2cc(NS(=O)(=O)c3cccs3)ccc2O[C@H]1CN(C)S(C)(=O)=O`, the activation was -0.143% (inactive).

`C[C@H]1CN([C@@H](C)CO)C(=O)c2cc(NC(=O)Cn3cnnn3)ccc2O[C@@H]1CN(C)Cc1ccc(Oc2ccccc2)cc1`: the activation was -0.201% (inactive).

`Cc1ccccc1N(CC(=O)NC1CCCCC1)C(=O)CNC(=O)c1cccs1`: the activation was 0.744% (inactive).

Take `COc1ccc(CNC(=O)Cn2ccc(N)nc2=O)cc1`: the activation was 0.076% (inactive).

As to `OC(Cc1ccccc1Br)c1ncc(-c2ccc(Cl)cc2)[nH]1` (stereo unspecified), the activation is 1.34% (inactive).

As for `C[C@H]1CN([C@@H](C)CO)C(=O)Cc2cc(NC(=O)Nc3ccccc3)ccc2O[C@H]1CN(C)C`, the activation is 0.067% (inactive).

As for `Brc1cnc2nc(SCc3nc4ccccc4[nH]3)[nH]c2c1`, the activation is 1.19% (inactive).

In the case of `CSc1nc2c(cnn2-c2ccc(C)c(C)c2)c(=O)[nH]1`, the activation is 0.487% (inactive).

Staying with this experiment, now noted: HUVEC E-selectin immunostaining, at 21 µM (top of the series), percent of TNF-alpha response over vehicle.
Turning to `C[C@H]1CN([C@@H](C)CO)C(=O)c2cc(NC(=O)Nc3ccc(F)cc3)ccc2O[C@H]1CN(C)S(=O)(=O)c1cccs1`, the activation was 2.05% (inactive).

Take `C[C@H](CO)N1C[C@H](C)[C@@H](CN(C)Cc2ccc(Cl)c(Cl)c2)Oc2c(NC(=O)CCCCCC(=O)Nc3ccccc3N)cccc2C1=O`: the activation is 3.2% (inactive).

With `C[C@H](NC(=O)C[C@H]1CC[C@H]2[C@H](COc3ccc(NS(=O)(=O)c4ccc(Cl)cc4)cc3C(=O)N2C)O1)c1ccccc1`, the activation was 0.192% (inactive).

With `C[C@H]1CN([C@@H](C)CO)C(=O)Cc2cc(NC(=O)CCCCCC(=O)Nc3ccccc3N)ccc2O[C@H]1CN(C)Cc1ccc(Cl)c(Cl)c1`, the activation is 5.06% (inactive).

`C[C@@H]1CN([C@H](C)CO)C(=O)Cc2cc(NC(=O)Nc3ccc(F)cc3)ccc2O[C@@H]1CN(C)Cc1ccncc1`: the activation was -0.095% (inactive).
